The structures appear in SMILES notation.

The experiment relates to rat liver mitochondria (RLM) membranes. Briefly: RLM lipid peroxidation, TBARS assay (FeSO4/H2O2/ascorbate). The format is biochemical. The settings on record: 5 μM pre-incubation, FIG. 4A. Here is the method:
In an embodiment, and as an example, AntiOxCINs antioxidant performance, on the protection of lipid peroxidation of RLM membranes was determined. Two different oxidative stressor agents, FeSO4/H2O2/ascorbate and ADP/FeSO4, and two end-points, TBARS production and oxygen-consumption, respectively, have been used. MitoQ was used as reference (FIGS. 4 and 5).
In an embodiment, the evaluation of AntiOxCINs functional mitochondrial toxicity profile was performed in rat liver mitochondria (RLM). RLM were prepared by tissue homogenization followed by differential centrifugations in ice-cold buffer containing 250 mM sucrose, 10 mM HEPES (pH 7.4), 1 mM EGTA, and 0.1% fat-free bovine serum albumin. […] The protein concentration was determined by the biuret assay using BSA as a standard.
In an embodiment, the effect of AntiOxCINs on RLM lipid peroxidation was measured by thiobarbituric acid reactive species (TBARS) assay as follows: RLM (2 mg protein/ml) were incubated in 0.8 mL medium containing 100 mM KCl, 10 mM Tris-HCl and pH 7.6, at 37° C., supplemented with 5 mM glutamate/2.5 mM malate as substrate. […] The fluorescence of aliquots (250 μL) of the organic layer was analyzed in a plate reader (λEx=515 nm; λEm=553 nm) for TBARS. […] Data are means±SEM of three independent experiments and are expressed as % of control (control=100%).

With `CS(=O)(=O)[O-].O=C(/C=C/c1ccc(O)c(O)c1)NCCCCCC[P+](c1ccccc1)(c1ccccc1)c1ccccc1` [AntiOxCIN2, (E)-(6-(3-(3,4-dihydroxyphenyl)prop-2-enamido)hexyl)triphenylphosphonium methanesulfonate], the “prevention of mitochondria lipid peroxidation (TBARS levels)” value was “most effective”.

The values are drawn from patent US10913757B2, “Hydroxycinnamic derivatives, methods and uses thereof” (UNIVERSIDADE DO PORTO, priority 2016, dated 2021).
